Reference: patent publication US5382586A, “Aryl (or heteroaryl)piperazinylalkylazole derivatives, their preparation and their application as medicaments” (priority 1991, dated 1995)

How the values were obtained:
[1] = system: conditioned avoidance response in male Wistar rats; test: conditioned avoidance response test (inhibition of the conditioned avoidance response; anxiolytic/tranquillising activity); type: in vivo, rat (male Wistar); conditions: rat; for Activity % (inhibition of the conditioned avoidance response): D = 80 mg/kg, p.o., 45 min before test; for ED50: po, 0.75 h
Protocol: Male Wistar rats weighing 200 grammes which have been trained to jump over a barrier in an avoidance and escape cage (shuttle box) (Letica, reference LI 910 and LI 2700) within 30 seconds of their being introduced into the cage are used in this test.
The products having an anxiolytic or tranquillising activity suppress the conditioned avoidance response.
Training: day one: 11 trials at 3 minute intervals. Electric shock to the paws after 30 seconds (5 mA, 0.1 s, 10 s).
Days two and three: 2 trials per day, with the selected rats only [sum of the scores for the first day (with the exception of the first trial)>14].
Test day: groups formed by selected rats. Oral administration of the product or the vehicle 45 minutes before the start of the study.

[2] = system: norepinephrine-induced death in rats; test: norepinephrine antagonism test in rats (antihypertensive activity); type: in vivo, rat (male Wister); conditions: for Activity % (norepinephrine antagonistic antihypertensive activity): D = 40 mg/kg, i.p., rat, norepinephrine 1.25 mg/kg i.v. after 2 hours; for ED50: Rattus norvegicus, ip, 2 h, read-out: ED50 (norepinephrine antagonistic antihypertensive activity)
Protocol: This activity is manifested by the protection of animals before death induced by an intravenous injection of norepinephrine, which produces a hypertensive attack in rats.
Male Wister rats weighing 200 grammes are used in this test. The product to be studied is administered intraperitoneally and 1.25 mg/kg (i.v.) of norepinephrine are administered after 2 hours.
The initial administration dose in these studies is 40 mg/kg (i.p.).

Structure (SMILES): Clc1cnn(CCCCN2CCN(c3ccccc3Cl)CC2)c1 [Example 37]
- Activity % (inhibition of the conditioned avoidance response) [1]: 86%
- ED50 [1]: 29.5 mg/kg
- Activity % (norepinephrine antagonistic antihypertensive activity) [2]: 100%
- ED50 [2]: 1.9 mg/kg

Structure (SMILES): c1cnc(N2CCN(CCCCn3ccc4ccccc43)CC2)nc1 [Example 3]
- Activity % (inhibition of the conditioned avoidance response) [1]: 74%
- ED50 [1]: 42.8 mg/kg
- Activity % (norepinephrine antagonistic antihypertensive activity) [2]: 25%

Structure (SMILES): COc1ccccc1N1CCN(CCCCn2c(C)nc(Cl)c2Cl)CC1 [Example 30]
- Activity % (inhibition of the conditioned avoidance response) [1]: 95%
- ED50 [1]: 12.8 mg/kg
- Activity % (norepinephrine antagonistic antihypertensive activity) [2]: 100%
- ED50 [2]: 0.18 mg/kg

Structure (SMILES): c1cnc(N2CCN(CCCCn3cccc3)CC2)nc1 [Example 1, 1-{4-[4-(2-pyrimidinyl)-1-piperazinyl]-butyl}pyrrole]
- Activity % (inhibition of the conditioned avoidance response) [1]: 94%
- ED50 [1]: 32.4 mg/kg
- Activity % (norepinephrine antagonistic antihypertensive activity) [2]: 0%

Structure (SMILES): c1ccc(-c2ncn(CCCCN3CCN(c4ncccn4)CC3)c2-c2ccccc2)cc1 [Example 8]
- Activity % (inhibition of the conditioned avoidance response) [1]: 29%
- Activity % (norepinephrine antagonistic antihypertensive activity) [2]: 0%

Structure (SMILES): c1cnc(N2CCN(CCCCn3c4ccccc4c4ccccc43)CC2)nc1 [Example 2]
- Activity % (inhibition of the conditioned avoidance response) [1]: 37%
- Activity % (norepinephrine antagonistic antihypertensive activity) [2]: 0%

Structure (SMILES): c1ccc(-c2cn(CCCCN3CCN(c4ncccn4)CC3)cn2)cc1 [Example 15]
- Activity % (inhibition of the conditioned avoidance response) [1]: 73%
- ED50 [1]: 28 mg/kg
- Activity % (norepinephrine antagonistic antihypertensive activity) [2]: 0%

Structure (SMILES): Clc1cnn(CCCCN2CCN(c3ccccc3)CC2)c1 [Example 35, 4-chloro-1-[4-(4-phenyl-1-piperazinyl)-butyl]-1H-pyrazole]
- Activity % (inhibition of the conditioned avoidance response) [1]: 100%
- ED50 [1]: 20.7 mg/kg
- Activity % (norepinephrine antagonistic antihypertensive activity) [2]: 100%
- ED50 [2]: 4.1 mg/kg

Structure (SMILES): c1ccc(-c2nc(-c3ccccc3)n(CCCCN3CCN(c4ncccn4)CC3)c2-c2ccccc2)cc1 [Example 9]
- Activity % (inhibition of the conditioned avoidance response) [1]: 8%
- Activity % (norepinephrine antagonistic antihypertensive activity) [2]: 0%

Structure (SMILES): COc1ccc(N2CCN(CCCCn3cc(Cl)cn3)CC2)cc1 [Example 27]
- Activity % (inhibition of the conditioned avoidance response) [1]: 88%
- Activity % (norepinephrine antagonistic antihypertensive activity) [2]: 0%

Structure (SMILES): COc1ccc(N2CCN(CCCCn3c(C)nc(Cl)c3Cl)CC2)cc1 [Example 28]
- Activity % (inhibition of the conditioned avoidance response) [1]: 75%
- ED50 [1]: 37.5 mg/kg
- Activity % (norepinephrine antagonistic antihypertensive activity) [2]: 100%
- ED50 [2]: 14 mg/kg

Structure (SMILES): c1cnc(N2CCN(CCCCn3nc4ccccc4n3)CC2)nc1 [Example 24]
- Activity % (inhibition of the conditioned avoidance response) [1]: 87%
- Activity % (norepinephrine antagonistic antihypertensive activity) [2]: 50%

Structure (SMILES): c1ccc(N2CCN(CCCCn3cccc3)CC2)cc1 [Example 34]
- Activity % (inhibition of the conditioned avoidance response) [1]: 96%
- ED50 [1]: 23.7 mg/kg
- Activity % (norepinephrine antagonistic antihypertensive activity) [2]: 100%
- ED50 [2]: 10 mg/kg

Structure (SMILES): Clc1nc2ccccc2n1CCCCN1CCN(c2ncccn2)CC1 [Example 20]
- Activity % (inhibition of the conditioned avoidance response) [1]: 77%
- ED50 [1]: 15.4 mg/kg
- Activity % (norepinephrine antagonistic antihypertensive activity) [2]: 0%

Structure (SMILES): c1cnc(N2CCN(CCCCn3cnc4cccnc43)CC2)nc1 [Example 17, 1-{4-[-4-(2-pyrimidinyl)-1-piperazinyl]-butyl}-3H-imidazo[5,4-b]pyridine]
- Activity % (inhibition of the conditioned avoidance response) [1]: 86%
- ED50 [1]: 21.9 mg/kg
- Activity % (norepinephrine antagonistic antihypertensive activity) [2]: 0%

Structure (SMILES): c1cnc(N2CCN(CCCCn3cnc4ncccc43)CC2)nc1 [Example 18, 1-{4-[4-(2-pyrimidinyl)-1-piperazinyl]-butyl}-1H-imidazo[4,5-b]pyridine]
- Activity % (inhibition of the conditioned avoidance response) [1]: 91%
- ED50 [1]: 25.6 mg/kg
- Activity % (norepinephrine antagonistic antihypertensive activity) [2]: 100%
- ED50 [2]: 3.97 mg/kg

Structure (SMILES): c1ccc(-c2c(-c3ccccc3)n(CCCCN3CCN(c4ncccn4)CC3)c3ccccc23)cc1 [Example 4]
- Activity % (inhibition of the conditioned avoidance response) [1]: 30%
- Activity % (norepinephrine antagonistic antihypertensive activity) [2]: 0%

Structure (SMILES): CCc1nccn1CCCCN1CCN(c2ncccn2)CC1 [Example 12]
- Activity % (inhibition of the conditioned avoidance response) [1]: 46%
- Activity % (norepinephrine antagonistic antihypertensive activity) [2]: 0%
